Reference: ChEMBL document CHEMBL1157784, “Antitumor activity and COMPARE analysis of bis-indole derivatives” (Bioorg Med Chem, 2010)
Calls of active or inactive are those of the source. The calls are words filed in the database; no cut-off is given here.

Assays:
[1] = biological target: NAD(P)H dehydrogenase [quinone] 1 (Homo sapiens) (UniProt P15559); assay: Induction of NQO1 activity in HUVEC at 5 uM after 24 to 48 hrs by fluorescence plate reader
[2] = Growth inhibition of human breast cancer cell by NCI-CLS assay; type: functional; conditions: Cancer cell lines; for CC50: read-out: LC50 (the source's name)
[3] = Antiproliferative activity against human M07e cells after 2 days by MTT assay; type: functional, cell-based; conditions: M-07e, 48 h
[4] = Acute toxicity in athymic nude Swiss mouse administered as single dose; type: organism-based; conditions: in vivo
NSCLC = assay: Growth inhibition of human NSCLC cell by NCI-CLS assay; type: functional
[5] = Growth inhibition of human melanoma cell by NCI-CLS assay; type: functional; conditions: for CC50: read-out: LC50 (the source's name)
[6] = Growth inhibition of human CNS cancer cell by NCI-CLS assay; type: functional; conditions: Cancer cell lines; for CC50: read-out: LC50 (the source's name)
HEL = assay: Antiproliferative activity against human HEL cells after 2 days by MTT assay; type: functional, cell-based; conditions: 48 h
[7] = Growth inhibition of human leukemia cell by NCI-CLS assay; type: functional
HUVEC = assay: Cytotoxicity against HUVEC after 2 days by MTT assay; type: cell-based; conditions: Homo sapiens, 48 h
[8] = Growth inhibition of human renal cancer cell by NCI-CLS assay; type: functional; conditions: Cancer cell lines; for CC50: read-out: LC50 (the source's name)
[9] = Growth inhibition of human ovarian cancer cell by NCI-CLS assay; type: functional; conditions: Cancer cell lines; for CC50: read-out: LC50 (the source's name)
[10] = Antiproliferative activity against human B1647 cells after 2 days by MTT assay; type: functional, cell-based; conditions: B1647, 48 h
[11] = Growth inhibition of human prostate cancer cell by NCI-CLS assay; type: functional; conditions: Cancer cell lines; for CC50: read-out: LC50 (the source's name)
[12] = Growth inhibition of human colon cancer cell by NCI-CLS assay; type: functional; conditions: Cancer cell lines

Sequence of NAD(P)H dehydrogenase [quinone] 1 (Homo sapiens) (P15559 whole entry): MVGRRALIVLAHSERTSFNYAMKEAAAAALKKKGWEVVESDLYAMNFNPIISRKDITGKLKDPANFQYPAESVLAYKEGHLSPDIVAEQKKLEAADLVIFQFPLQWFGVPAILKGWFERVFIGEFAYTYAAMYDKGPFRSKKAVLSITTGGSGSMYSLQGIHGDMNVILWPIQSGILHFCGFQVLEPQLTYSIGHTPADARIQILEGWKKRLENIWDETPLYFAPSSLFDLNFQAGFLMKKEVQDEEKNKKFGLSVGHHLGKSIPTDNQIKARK

**Q.** Which Activity [1] does the source give for C[S+]([O-])CCCCN=C=S (stereo not given) here?
**A.** Its Activity is “Active”.

**Q.** For COc1cc2c(c(OC)c1OC)/C(=C\c1cccc(/C=C3/C(=O)Nc4cc(OC)c(OC)c(OC)c43)n1)C(=O)N2, which GI50 [2] is on record?
**A.** The GI50 was 200 nM.

**Q.** And the TGI [2]?
**A.** The TGI was 1500 nM.

**Q.** What about the CC50 [2] of the same molecule?
**A.** The CC50 was 24.6 µM.

**Q.** And the IC50 [3]?
**A.** Its IC50 is 1000 nM.

**Q.** And the MTD [4]?
**A.** The MTD was 100 mg/kg.

**Q.** And the GI50 (NSCLC)?
**A.** The GI50 was 300 nM.

**Q.** And the LC50 (NSCLC)?
**A.** Its LC50 is 33.1 µM.

**Q.** What about the TGI (NSCLC) of the same molecule?
**A.** The TGI was 1500 nM.

**Q.** What about the GI50 [5] of the same molecule?
**A.** Its GI50 is 200 nM.

**Q.** What about the TGI [5] of the same molecule?
**A.** The TGI was 500 nM.

**Q.** And the CC50 [5]?
**A.** Its CC50 is 2.7 µM.

**Q.** And the GI50 [6]?
**A.** Its GI50 is 300 nM.

**Q.** What about the TGI [6] of the same molecule?
**A.** Its TGI is 800 nM.

**Q.** What about the CC50 [6] of the same molecule?
**A.** The CC50 was 3200 nM.

**Q.** What about the IC50 (HEL) of the same molecule?
**A.** Its IC50 is 1000 nM.

**Q.** And the GI50 [7]?
**A.** Its GI50 is 200 nM.

**Q.** And the LC50 [7]?
**A.** Its LC50 is 67.6 µM.

**Q.** What about the TGI [7] of the same molecule?
**A.** The TGI was 2.8 µM.

**Q.** And the IC50 (HUVEC)?
**A.** Its IC50 is < 5 µM.

**Q.** What about the GI50 [8] of the same molecule?
**A.** The GI50 was 300 nM.

**Q.** What about the TGI [8] of the same molecule?
**A.** Its TGI is 700 nM.

**Q.** And the CC50 [8]?
**A.** Its CC50 is 4.5 µM.

**Q.** And the Activity [1]?
**A.** The Activity was “Active”.

**Q.** And the GI50 [9]?
**A.** Its GI50 is 300 nM.

**Q.** What about the TGI [9] of the same molecule?
**A.** The TGI was 800 nM.

**Q.** What about the CC50 [9] of the same molecule?
**A.** The CC50 was 5.7 µM.

**Q.** What about the IC50 [10] of the same molecule?
**A.** The IC50 was 1000 nM.

**Q.** What about the GI50 [11] of the same molecule?
**A.** The GI50 was 300 nM.

**Q.** And the TGI [11]?
**A.** The TGI was 1000 nM.

**Q.** What about the CC50 [11] of the same molecule?
**A.** The CC50 was 16.6 µM.

**Q.** What about the GI50 [12] of the same molecule?
**A.** The GI50 was 200 nM.

**Q.** And the LC50 [12]?
**A.** Its LC50 is 7.2 µM.

**Q.** What about the TGI [12] of the same molecule?
**A.** Its TGI is 500 nM.

**Q.** For O=C1Nc2cc(OC(F)(F)F)ccc2/C1=C\c1cccc(/C=C2/C(=O)Nc3cc(OC(F)(F)F)ccc32)n1, which GI50 [2] is on record?
**A.** The GI50 was 300 nM.

**Q.** And the TGI [2]?
**A.** The TGI was 2000 nM.

**Q.** What about the CC50 [2] of the same molecule?
**A.** The CC50 was 15.8 µM.

**Q.** And the IC50 [3]?
**A.** The IC50 was 3000 nM.

**Q.** And the GI50 (NSCLC)?
**A.** The GI50 was 400 nM.

**Q.** And the LC50 (NSCLC)?
**A.** The LC50 was 15.5 µM.

**Q.** And the TGI (NSCLC)?
**A.** The TGI was 1900 nM.

**Q.** And the GI50 [5]?
**A.** Its GI50 is 400 nM.

**Q.** What about the TGI [5] of the same molecule?
**A.** Its TGI is 1100 nM.

**Q.** And the CC50 [5]?
**A.** Its CC50 is 5.7 µM.

**Q.** What about the GI50 [6] of the same molecule?
**A.** Its GI50 is 300 nM.

**Q.** And the TGI [6]?
**A.** Its TGI is 800 nM.

**Q.** And the CC50 [6]?
**A.** Its CC50 is 2600 nM.

**Q.** And the IC50 (HEL)?
**A.** Its IC50 is 3000 nM.

**Q.** And the GI50 [7]?
**A.** Its GI50 is 200 nM.

**Q.** What about the TGI [7] of the same molecule?
**A.** The TGI was 8.9 µM.

**Q.** What about the IC50 (HUVEC) of the same molecule?
**A.** The IC50 was < 5 µM.

**Q.** And the GI50 [8]?
**A.** Its GI50 is 300 nM.

**Q.** What about the TGI [8] of the same molecule?
**A.** Its TGI is 700 nM.

**Q.** What about the CC50 [8] of the same molecule?
**A.** The CC50 was 2.9 µM.

**Q.** What about the Activity [1] of the same molecule?
**A.** The Activity was “Active”.

**Q.** What about the GI50 [9] of the same molecule?
**A.** Its GI50 is 400 nM.

**Q.** What about the TGI [9] of the same molecule?
**A.** The TGI was 2500 nM.

**Q.** What about the CC50 [9] of the same molecule?
**A.** The CC50 was 12.3 µM.

**Q.** What about the IC50 [10] of the same molecule?
**A.** Its IC50 is 3000 nM.

**Q.** What about the GI50 [11] of the same molecule?
**A.** Its GI50 is 100 nM.

**Q.** And the TGI [11]?
**A.** Its TGI is 300 nM.

**Q.** And the CC50 [11]?
**A.** Its CC50 is 3.2 µM.

**Q.** And the GI50 [12]?
**A.** The GI50 was 200 nM.

**Q.** What about the LC50 [12] of the same molecule?
**A.** Its LC50 is 2 µM.

**Q.** And the TGI [12]?
**A.** The TGI was 500 nM.

**Q.** Which GI50 [2] does the source give for COc1ccc2c(c1)/C(=C\c1ccccc1/C=C1/C(=O)Nc3ccc(OC)cc31)C(=O)N2 here?
**A.** The GI50 was 7800 nM.

**Q.** What about the GI50 (NSCLC) of the same molecule?
**A.** The GI50 was 14100 nM.

**Q.** And the TGI (NSCLC)?
**A.** Its TGI is 87100 nM.

**Q.** What about the GI50 [5] of the same molecule?
**A.** Its GI50 is 13800 nM.

**Q.** And the TGI [5]?
**A.** The TGI was 91200 nM.

**Q.** And the GI50 [6]?
**A.** The GI50 was 14100 nM.

**Q.** And the TGI [6]?
**A.** The TGI was 72400 nM.

**Q.** What about the GI50 [7] of the same molecule?
**A.** The GI50 was 5400 nM.

**Q.** What about the GI50 [8] of the same molecule?
**A.** Its GI50 is 21400 nM.

**Q.** And the TGI [8]?
**A.** The TGI was 79400 nM.

**Q.** What about the GI50 [9] of the same molecule?
**A.** Its GI50 is 14100 nM.

**Q.** What about the GI50 [11] of the same molecule?
**A.** The GI50 was 14400 nM.

**Q.** What about the TGI [11] of the same molecule?
**A.** The TGI was 58900 nM.

**Q.** What about the GI50 [12] of the same molecule?
**A.** The GI50 was 7800 nM.

**Q.** What about the TGI [12] of the same molecule?
**A.** The TGI was 87100 nM.
